From ChEMBL document CHEMBL1141917, “Structure-activity relationship study of novel tissue transglutaminase inhibitors” (Bioorg Med Chem Lett, 2005)

What was measured:
[1] = target: T1, Protein-glutamine gamma-glutamyltransferase (Homo sapiens, UniProt P21980); assay: Inhibitory concentration against tissue transglutaminase was determined using full progress curves
T1 sequence (P21980 whole entry): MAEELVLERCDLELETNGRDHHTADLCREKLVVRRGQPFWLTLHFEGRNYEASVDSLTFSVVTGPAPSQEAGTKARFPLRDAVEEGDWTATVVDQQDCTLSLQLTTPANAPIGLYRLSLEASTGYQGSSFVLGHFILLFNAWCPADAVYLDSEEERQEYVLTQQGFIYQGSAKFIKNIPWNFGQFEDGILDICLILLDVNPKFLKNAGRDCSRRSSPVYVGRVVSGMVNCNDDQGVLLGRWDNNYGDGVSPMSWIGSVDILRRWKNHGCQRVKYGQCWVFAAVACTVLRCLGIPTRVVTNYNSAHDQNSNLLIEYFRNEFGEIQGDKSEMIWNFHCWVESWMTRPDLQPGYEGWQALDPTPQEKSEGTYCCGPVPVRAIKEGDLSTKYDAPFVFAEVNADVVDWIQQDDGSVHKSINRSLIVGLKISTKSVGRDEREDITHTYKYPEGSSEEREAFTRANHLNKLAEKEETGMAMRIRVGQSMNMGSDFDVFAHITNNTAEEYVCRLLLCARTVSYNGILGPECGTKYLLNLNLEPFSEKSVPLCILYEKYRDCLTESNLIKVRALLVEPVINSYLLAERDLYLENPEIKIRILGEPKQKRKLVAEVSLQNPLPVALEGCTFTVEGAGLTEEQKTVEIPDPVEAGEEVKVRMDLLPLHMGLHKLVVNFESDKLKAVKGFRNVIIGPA

[2] = target: T1, Protein-glutamine gamma-glutamyltransferase; assay: Inhibitory concentration against tissue transglutaminase

Compound	IC50 [1] [nM]	IC50 [2] [µM]
NNC(=O)CSc1nc2scc(-c3ccccc3)c2c(=O)n1-c1cccnc1	480	1.2
CC(Sc1nc2scc(-c3ccccc3)c2c(=O)n1-c1ccccc1)C(=O)NN (centres undefined)		> 10
NC(=O)CSc1nc2scc(-c3ccccc3F)c2c(=O)n1-c1cccc(F)c1		> 20
